Results: PubChem BioAssay (NCI)
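Protocol summary: plate cells (96-well), add compound at 5 concentrations, incubate 48 h, interpolate endpoints linearly. GI50 is the concentration that inhibits growth by half. At the TGI there is no net growth.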

How the values were obtained:
Test in all cases: NCI-60 cell line screen, 48 h
SK-MEL-5 melanoma = tested on: SK-MEL-5 melanoma
ACHN renal = tested on: ACHN renal
K-562 leukemia = tested on: K-562 leukemia
MDA-MB-435 = tested on: MDA-MB-435
UACC-257 melanoma = tested on: UACC-257 melanoma
HCT-116 colon = tested on: HCT-116 colon
SNB-75 CNS = tested on: SNB-75 CNS
LOX IMVI melanoma = tested on: LOX IMVI melanoma
MALME-3M melanoma = tested on: MALME-3M melanoma
BT-549 breast = tested on: BT-549 breast
UO-31 renal = tested on: UO-31 renal
TK-10 renal = tested on: TK-10 renal
A549 NSCLC = tested on: A549 NSCLC
U251 CNS = tested on: U251 CNS
DU-145 prostate = tested on: DU-145 prostate
UACC-62 melanoma = tested on: UACC-62 melanoma
NCI/ADR-RES ovarian = tested on: NCI/ADR-RES ovarian
EKVX NSCLC = tested on: EKVX NSCLC
IGROV1 ovarian = tested on: IGROV1 ovarian
CCRF-CEM leukemia = tested on: CCRF-CEM leukemia
SNB-19 CNS = tested on: SNB-19 CNS
KM12 colon = tested on: KM12 colon
HCC-2998 colon = tested on: HCC-2998 colon
NCI-H226 lung = tested on: NCI-H226 lung
OVCAR-3 ovarian = tested on: OVCAR-3 ovarian
NCI-H522 lung = tested on: NCI-H522 lung
SK-MEL-28 melanoma = tested on: SK-MEL-28 melanoma
SN12C renal = tested on: SN12C renal
OVCAR-8 ovarian = tested on: OVCAR-8 ovarian
NCI-H23 lung = tested on: NCI-H23 lung
T-47D breast = tested on: T-47D breast
HOP-62 NSCLC = tested on: HOP-62 NSCLC
OVCAR-4 ovarian = tested on: OVCAR-4 ovarian
SK-OV-3 ovarian = tested on: SK-OV-3 ovarian
RPMI-8226 leukemia = tested on: RPMI-8226 leukemia
OVCAR-5 ovarian = tested on: OVCAR-5 ovarian
HT29 colon = tested on: HT29 colon
M14 melanoma = tested on: M14 melanoma
HL-60(TB) leukemia = tested on: HL-60(TB) leukemia
SF-539 CNS = tested on: SF-539 CNS
SF-295 CNS = tested on: SF-295 CNS
MCF7 breast = tested on: MCF7 breast
CAKI-1 renal = tested on: CAKI-1 renal
SW-620 colon = tested on: SW-620 colon
A498 renal = tested on: A498 renal
SR leukemia = tested on: SR leukemia
COLO 205 colon = tested on: COLO 205 colon
HOP-92 NSCLC = tested on: HOP-92 NSCLC
SF-268 CNS = tested on: SF-268 CNS
NCI-H460 lung = tested on: NCI-H460 lung
786-0 renal = tested on: 786-0 renal
RXF 393 renal = tested on: RXF 393 renal
HCT-15 colon = tested on: HCT-15 colon
MDA-MB-231 breast = tested on: MDA-MB-231 breast
MOLT-4 leukemia = tested on: MOLT-4 leukemia
PC-3 prostate = tested on: PC-3 prostate
HS 578T breast = tested on: HS 578T breast
SK-MEL-2 melanoma = tested on: SK-MEL-2 melanoma

CCCn1cnc2c(c1=N)C(c1ccc(OC)cc1)c1sc3c(CC)cccc3c1O2 (stereo not given)
GI50 (SK-MEL-5 melanoma): 578 nM | TGI (SK-MEL-5 melanoma): 7280 nM | GI50 (ACHN renal): 725 nM | TGI (ACHN renal): 17700 nM | GI50 (K-562 leukemia): 338 nM | TGI (K-562 leukemia): > 31600 nM | GI50 (MDA-MB-435): 196 nM | TGI (MDA-MB-435): 479 nM | GI50 (UACC-257 melanoma): 15000 nM | TGI (UACC-257 melanoma): > 100000 nM | GI50 (HCT-116 colon): 382 nM | TGI (HCT-116 colon): 4770 nM | GI50 (SNB-75 CNS): 220 nM | TGI (SNB-75 CNS): 1090 nM | GI50 (LOX IMVI melanoma): 685 nM | TGI (LOX IMVI melanoma): 5430 nM | GI50 (MALME-3M melanoma): 726 nM | TGI (MALME-3M melanoma): 21700 nM | GI50 (BT-549 breast): 691 nM | TGI (BT-549 breast): 16000 nM | GI50 (UO-31 renal): 714 nM | TGI (UO-31 renal): 29900 nM | GI50 (TK-10 renal): 5130 nM | TGI (TK-10 renal): 32400 nM | GI50 (A549 NSCLC): 827 nM | TGI (A549 NSCLC): 20900 nM | GI50 (U251 CNS): 438 nM | TGI (U251 CNS): 12500 nM | GI50 (DU-145 prostate): 665 nM | TGI (DU-145 prostate): 13700 nM | GI50 (UACC-62 melanoma): 422 nM | TGI (UACC-62 melanoma): 19100 nM | GI50 (NCI/ADR-RES ovarian): 389 nM | TGI (NCI/ADR-RES ovarian): 10000 nM | GI50 (EKVX NSCLC): 941 nM | TGI (EKVX NSCLC): 20000 nM | GI50 (IGROV1 ovarian): 612 nM | TGI (IGROV1 ovarian): 29400 nM | GI50 (CCRF-CEM leukemia): 421 nM | GI50 (SNB-19 CNS): 478 nM | TGI (SNB-19 CNS): 14600 nM | GI50 (KM12 colon): 445 nM | TGI (KM12 colon): 24900 nM | GI50 (HCC-2998 colon): 1300 nM | TGI (HCC-2998 colon): 6600 nM | GI50 (NCI-H226 lung): 964 nM | TGI (NCI-H226 lung): 11200 nM | GI50 (OVCAR-3 ovarian): 378 nM | TGI (OVCAR-3 ovarian): 2970 nM | GI50 (NCI-H522 lung): 346 nM | TGI (NCI-H522 lung): 4940 nM | GI50 (SK-MEL-28 melanoma): 2140 nM | TGI (SK-MEL-28 melanoma): 36700 nM | GI50 (SN12C renal): 867 nM | TGI (SN12C renal): 7600 nM | GI50 (OVCAR-8 ovarian): 1010 nM | TGI (OVCAR-8 ovarian): 15800 nM | GI50 (NCI-H23 lung): 1270 nM | TGI (NCI-H23 lung): 18100 nM | GI50 (T-47D breast): 518 nM | TGI (T-47D breast): > 49200 nM | GI50 (HOP-62 NSCLC): 553 nM | TGI (HOP-62 NSCLC): 14800 nM | GI50 (OVCAR-4 ovarian): 1350 nM | TGI (OVCAR-4 ovarian): 23500 nM | GI50 (SK-OV-3 ovarian): 818 nM | TGI (SK-OV-3 ovarian): 26900 nM | GI50 (RPMI-8226 leukemia): 375 nM | TGI (RPMI-8226 leukemia): 2560 nM | GI50 (OVCAR-5 ovarian): 2590 nM | TGI (OVCAR-5 ovarian): 17900 nM | GI50 (HT29 colon): 512 nM | TGI (HT29 colon): 9090 nM | GI50 (M14 melanoma): 389 nM | TGI (M14 melanoma): 6180 nM | GI50 (HL-60(TB) leukemia): 279 nM | TGI (HL-60(TB) leukemia): 1030 nM | GI50 (SF-539 CNS): 334 nM | TGI (SF-539 CNS): 1400 nM | GI50 (SF-295 CNS): 392 nM | TGI (SF-295 CNS): 7240 nM | GI50 (MCF7 breast): 345 nM | TGI (MCF7 breast): 11600 nM | GI50 (CAKI-1 renal): 476 nM | TGI (CAKI-1 renal): 20600 nM | GI50 (SW-620 colon): 515 nM | TGI (SW-620 colon): 14800 nM | GI50 (A498 renal): 334 nM | TGI (A498 renal): 1410 nM | GI50 (SR leukemia): 319 nM | TGI (SR leukemia): 3230 nM | GI50 (COLO 205 colon): 844 nM | TGI (COLO 205 colon): 8270 nM | GI50 (HOP-92 NSCLC): 1190 nM | TGI (HOP-92 NSCLC): 11200 nM | GI50 (SF-268 CNS): 702 nM | TGI (SF-268 CNS): 26100 nM | GI50 (NCI-H460 lung): 378 nM | TGI (NCI-H460 lung): 4450 nM | GI50 (786-0 renal): 534 nM | TGI (786-0 renal): 12800 nM | GI50 (RXF 393 renal): 272 nM | TGI (RXF 393 renal): 883 nM | GI50 (HCT-15 colon): 441 nM | TGI (HCT-15 colon): 6210 nM | GI50 (MDA-MB-231 breast): 1360 nM | TGI (MDA-MB-231 breast): 13000 nM | GI50 (MOLT-4 leukemia): 505 nM | TGI (MOLT-4 leukemia): 5780 nM | GI50 (PC-3 prostate): 551 nM | TGI (PC-3 prostate): 16900 nM | GI50 (HS 578T breast): 384 nM | TGI (HS 578T breast): 5760 nM | GI50 (SK-MEL-2 melanoma): 608 nM | TGI (SK-MEL-2 melanoma): 14700 nM
